In US5208251A, “Styryl pyrazoles, isoxazoles and analogs thereof having activity as 5-lipoxygenase inhibitors, pharmaceutical compositions and methods of use therefor” (Warner-Lambert Company, priority 1989, dated 1993) one finds IC50 data, which are given here for twelve compounds.

A value given as a limit tells only on which side of the number the result lay.

For this test, the system named is cyclooxygenase. Kind of test: ARBC whole cell cyclooxygenase assay (RBL-1 cells, PGF2α). Format: cell-based, rat. The following applies: RBL-1 intact cell cyclooxygenase, PGF2α by RIA, A23187 5 μM. The method, then: ARBL/ARBC Whole Cell 5-Lipoxygenase and Cyclooxygenase Assays
The rat basophilic leukemia cell line (RBL-1) was obtained from the American Type Culture Collection (Rockville, Md.).
Radioimmuno assay (RIA) kits of LTB4 and PGF2α were obtained from Amersham (Arlington Heights, IL) and Seragen (Boston, Mass.) respectively.
All tissue culture media were obtained from GIBCO (Grand Island, N.Y.).
RBL-1 cells were grown in culture (suspension) in Eagle's minimum essential medium supplemented with fetal bovine serum and 1:100 antibiotic-antimycotic mixture at 37° C. in an incubator supplied with air-5% carbon dioxide. Cells were harvested by centrifugation. They were washed with cold phosphate buffered saline pH 7.4 (PBS; NaCl, 7.1 g; Na2 HPO4, 1.15 g; KH2 PO4, 0.2 g; and KCl, 0.2 g/L). […] Calcium ionophore A23187 (5 μM) was added and cells were incubated for seven minutes at 37° C. The reaction was stopped by chilling the tubes in ice for ten minutes. Cells were separated by centrifugation and the supernatant was stored at -20° . Aliquots (100 μl) were analyzed for LTB4 and PGF2α using radioimmuno assay kits as provided by the supplier.

For the compound `CCOC(=O)Cn1nc(C)cc1/C=C/c1cc(OC)c(O)c(OC)c1` [Example 10D, (E)-5-[β-(4'-Hydroxy-3',5'-dimethoxyphenyl)ethenyl]-3-methyl-1H-pyrazole-1-acetic acid, ethyl ester], the IC50 was over 30 µM.
As for `COC(=O)Cn1nc(C=Cc2cc(C(C)(C)C)c(O)c(C(C)(C)C)c2)cc1C` [Example 10G-1], the figure is over 30 µM; as for `COC(=O)Cn1nc(C)cc1C=Cc1cc(C(C)(C)C)c(O)c(C(C)(C)C)c1` [Example 10G-2], over 30 µM.
As for `COC(=O)Cn1nc(C=Cc2cc(OC)c(O)c(OC)c2)cc1C` [Example 10H, 3-[β-(4'-Hydroxy-3',5'-dimethoxyphenyl)ethenyl]-5-methyl-1H-pyrazole-1-acetic acid, methyl ester], the figure is over 30 µM; as for `COC(=O)Cn1nc(C)cc1C=Cc1ccc(O)c(OC)c1` [Example 10I, 5-[β-(4'-Hydroxy-3'-methoxyphenyl)ethenyl]-3-methyl-1H-pyrazole-1-acetic acid methyl ester], over 25 µM.
Regarding `COc1cc(C=Cc2cc(C)nn2CC(=O)O)cc(OC)c1O` [Example 10M, 5-[β-(4'-Hydroxy-3',5'-dimethoxyphenyl)ethenyl]-3-methyl-1H-pyrazole-1-acetic acid], the half-maximal inhibitory concentration (IC50) was over 30 µM.
As for `COc1cc(C=Cc2cc(C)n(CC(=O)O)n2)cc(OC)c1O` [Example 10N, 3-[β-(4'-Hydroxy-3',5'-dimethoxyphenyl)ethenyl]-5-methyl-1H-pyrazole-1-acetic acid], the figure is over 30 µM; as for `Cc1cc(C=Cc2cc(C(C)(C)C)c(O)c(C(C)(C)C)c2)n(CC(=O)O)n1` [Example 10P, 5-[β-(4'-Hydroxy-3',5'-di-t-butylphenyl)ethenyl]-3-methyl-1H-pyrazole-1-acetic acid], over 30 µM; as for `Cc1cc(C=Cc2cc(C(C)(C)C)c(O)c(C(C)(C)C)c2)nn1CC(=O)O` [Example 10Q, 3-[β-(4'-Hydroxy-3',5'-di-t-butylphenyl)ethenyl]-5-methyl-1H-pyrazole-1-acetic acid], over 30 µM.
As for `Cc1cc(C=Cc2cc(Cl)cc(Cl)c2O)on1` [Example 32J, 5-[β-(2'-Hydroxy-3',5'-dichlorophenyl)ethenyl]-3-methylisoxazole], the figure is over 30 µM; as for `COC(=O)C(=Cc1cc(OC)c(O)c(OC)c1)c1cc(C)no1` [Example 40, 5-[α-Carbomethoxy-β-(4'-hydroxy-3',5'-dimethoxyphenyl)ethenyl]-3-methylisoxazole], over 25 µM.
As for `Cc1cc(C(=Cc2cc(C)c(O)c(C)c2)C(=O)O)on1` [Example 52, 5-[α-carboxy-β-(4'-hydroxy-3',5'-dimethylphenyl)ethenyl]-3-methylisoxazole], the figure is over 20 µM.
